Data from US12539292B2, “BRM targeting compounds and associated methods of use” (Arvinas Operations, Inc., priority 2018, dated 2026).

Target: T1, BRM (Homo sapiens, UniProt P51531)
T1 construct: In-Cell Western Screen of BRM Degradation in SW1573 Cells; endogenous in cells; host or cells: SW1573
Test: In-cell Western screen of BRM degradation in SW1573 cells (Dmax and DC50)
Type: cell-based
Conditions: BRM degradation, SW1573 cells; for DC50: read-out: DC50; for Dmax: when tested at the top concentration of between 0.3 and 10 μM, read-out: Dmax (%) (% degraded)
Summary of the method: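 After adhering overnight, cells received compound for 18-20 hours. They were then washed in cold DPBS, fixed with 4% PFA for 20 min and permeabilized for 30 min. Blocking and fluorescent secondary staining followed before imaging.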

T1 sequence (P51531 whole entry): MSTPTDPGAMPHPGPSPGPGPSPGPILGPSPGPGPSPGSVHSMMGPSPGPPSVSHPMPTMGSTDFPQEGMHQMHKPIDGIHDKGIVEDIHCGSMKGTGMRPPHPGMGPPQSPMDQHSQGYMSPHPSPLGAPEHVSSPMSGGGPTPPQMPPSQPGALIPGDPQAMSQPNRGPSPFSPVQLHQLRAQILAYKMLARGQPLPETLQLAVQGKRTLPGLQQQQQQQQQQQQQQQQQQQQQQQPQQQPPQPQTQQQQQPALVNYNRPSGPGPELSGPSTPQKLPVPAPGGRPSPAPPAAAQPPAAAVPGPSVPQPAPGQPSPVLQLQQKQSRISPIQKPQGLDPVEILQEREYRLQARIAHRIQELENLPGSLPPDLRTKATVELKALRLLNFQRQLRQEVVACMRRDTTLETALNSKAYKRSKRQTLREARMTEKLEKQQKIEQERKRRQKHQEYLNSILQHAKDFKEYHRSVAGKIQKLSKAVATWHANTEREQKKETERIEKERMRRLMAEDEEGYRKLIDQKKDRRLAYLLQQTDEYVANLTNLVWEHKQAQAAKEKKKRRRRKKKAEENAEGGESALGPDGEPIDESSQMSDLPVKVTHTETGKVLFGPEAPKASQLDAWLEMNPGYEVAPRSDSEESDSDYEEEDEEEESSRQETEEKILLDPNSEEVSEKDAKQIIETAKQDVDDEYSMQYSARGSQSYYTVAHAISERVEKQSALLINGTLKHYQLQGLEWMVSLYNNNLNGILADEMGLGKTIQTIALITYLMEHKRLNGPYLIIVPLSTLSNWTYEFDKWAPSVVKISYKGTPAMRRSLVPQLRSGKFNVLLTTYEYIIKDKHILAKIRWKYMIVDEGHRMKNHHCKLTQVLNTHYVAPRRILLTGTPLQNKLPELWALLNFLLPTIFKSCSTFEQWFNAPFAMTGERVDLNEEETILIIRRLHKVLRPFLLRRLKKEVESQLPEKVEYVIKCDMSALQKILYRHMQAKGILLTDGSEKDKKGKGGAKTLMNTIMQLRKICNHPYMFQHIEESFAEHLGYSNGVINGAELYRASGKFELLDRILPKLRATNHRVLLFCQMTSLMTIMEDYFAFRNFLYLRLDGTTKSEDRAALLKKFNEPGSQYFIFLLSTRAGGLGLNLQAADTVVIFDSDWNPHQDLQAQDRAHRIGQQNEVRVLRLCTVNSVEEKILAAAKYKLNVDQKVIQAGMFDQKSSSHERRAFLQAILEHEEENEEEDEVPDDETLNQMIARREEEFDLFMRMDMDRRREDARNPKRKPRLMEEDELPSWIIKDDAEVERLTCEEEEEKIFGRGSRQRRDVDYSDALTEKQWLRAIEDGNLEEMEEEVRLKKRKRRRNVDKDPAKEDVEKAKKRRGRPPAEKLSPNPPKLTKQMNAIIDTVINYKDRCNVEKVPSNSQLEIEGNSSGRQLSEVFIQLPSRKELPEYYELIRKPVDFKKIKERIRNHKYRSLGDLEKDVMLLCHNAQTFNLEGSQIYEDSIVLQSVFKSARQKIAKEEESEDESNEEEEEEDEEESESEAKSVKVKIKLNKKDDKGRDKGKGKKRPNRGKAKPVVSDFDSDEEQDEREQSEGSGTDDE

| Compound | DC50 | Dmax |
| --- | --- | --- |
| Cc1ncsc1-c1ccc([C@H](CN)NC(=O)[C@@H]2C[C@@H](O)CN2C(=O)[C@@H](c2cc(OCCN3CCN(CCOc4cc(N5C6CCC5CN(c5cc(-c7ccccc7O)nnc5N)C6)ccn4)CC3)no2)C(C)C)cc1 [compound 103, (2S,4R)-N-((R)-2-amino-1-(4-(4-methylthiazol-5-yl)phenyl)ethyl)-1-((2R)-2-(3-(2-(4-(2-((4-(3-(3-amino-6-(2-hydroxyphenyl)pyridazin-4-yl)-3,8-diazabicyclo[3.2.1]octan-8-yl)pyridin-2-yl)oxy)ethyl)piperazin-1-yl)ethoxy)isoxazol-5-yl)-3-methylbutanoyl)-4-hydroxypyrrolidine-2-carboxamide] | 2.5 to 10 nM | > 75% |
| Cc1ncsc1-c1ccc([C@H](C)NC(=O)[C@@H]2C[C@@H](O)CN2C(=O)[C@@H](c2cc(CCCOCCOCCOCCn3cc(-c4cc(-c5ccccc5O)nnc4N)cn3)no2)C(C)C)cc1 [compound 110, (2S,4R)-1-((R)-2-(3-(3-(2-(2-(2-(4-(3-amino-6-(2-hydroxyphenyl)pyridazin-4-yl)-1H-pyrazol-1-yl)ethoxy)ethoxy)ethoxy)propyl)isoxazol-5-yl)-3-methylbutanoyl)-4-hydroxy-N-((S)-1-(4-(4-methylthiazol-5-yl)phenyl)ethyl)pyrrolidine-2-carboxamide] | < 2.5 nM | > 75% |
| Cc1ncsc1-c1ccc([C@H](C)NC(=O)[C@@H]2C[C@@H](O)CN2C(=O)[C@@H](c2cc(OCCN3CCN(CCC#CCn4cc(-c5cc(-c6ccccc6O)nnc5N)cn4)CC3)no2)C(C)C)cc1 [compound 112, (2S,4R)-1-((R)-2-(3-(2-(4-(5-(4-(3-amino-6-(2-hydroxyphenyl)pyridazin-4-yl)-1H-pyrazol-1-yl)pent-3-yn-1-yl)piperazin-1-yl)ethoxy)isoxazol-5-yl)-3-methylbutanoyl)-4-hydroxy-N-((S)-1-(4-(4-methylthiazol-5-yl)phenyl)ethyl)pyrrolidine-2-carboxamide] | < 2.5 nM | > 75% |
| Cc1ncsc1-c1ccc([C@H](C)NC(=O)[C@@H]2C[C@@H](O)CN2C(=O)[C@@H](c2cc(OCCN3CCN(CC#CCn4cc(-c5cc(-c6ccccc6O)nnc5N)cn4)CC3)no2)C(C)C)cc1 [compound 113, (2S,4R)-1-((R)-2-(3-(2-(4-(4-(4-(3-amino-6-(2-hydroxyphenyl)pyridazin-4-yl)-1H-pyrazol-1-yl)but-2-yn-1-yl)piperazin-1-yl)ethoxy)isoxazol-5-yl)-3-methylbutanoyl)-4-hydroxy-N-((S)-1-(4-(4-methylthiazol-5-yl)phenyl)ethyl)pyrrolidine-2-carboxamide] | < 2.5 nM | > 75% |
| Cc1ncsc1-c1ccc([C@H](C)NC(=O)[C@@H]2C[C@@H](O)CN2C(=O)[C@@H](c2onc(OCCN3CCN(CCOc4cc(N5C6CCC5CN(c5cc(-c7ccccc7O)nnc5N)C6)ccn4)CC3)c2F)C(C)C)cc1 [compound 114, (2S,4R)-1-((2R)-2-(3-(2-(4-(2-((4-(3-(3-amino-6-(2-hydroxyphenyl)pyridazin-4-yl)-3,8-diazabicyclo[3.2.1]octan-8-yl)pyridin-2-yl)oxy)ethyl)piperazin-1-yl)ethoxy)-4-fluoroisoxazol-5-yl)-3-methylbutanoyl)-4-hydroxy-N-((S)-1-(4-(4-methylthiazol-5-yl)phenyl)ethyl)pyrrolidine-2-carboxamide] | < 2.5 nM | > 75% |
| CC(C)[C@@H](C(=O)N1C[C@H](O)C[C@H]1C(=O)N[C@@H](C)c1ccc(-c2nccn2C)cc1)c1cc(OCCN2CCN(CCOc3cc(N4C5CCC4CN(c4cc(-c6ccccc6O)nnc4N)C5)ccn3)CC2)no1 [compound 115, (2S,4R)-1-((2R)-2-(3-(2-(4-(2-((4-(3-(3-amino-6-(2-hydroxyphenyl)pyridazin-4-yl)-3,8-diazabicyclo[3.2.1]octan-8-yl)pyridin-2-yl)oxy)ethyl)piperazin-1-yl)ethoxy)isoxazol-5-yl)-3-methylbutanoyl)-4-hydroxy-N-((S)-1-(4-(1-methyl-1H-imidazol-2-yl)phenyl)ethyl)pyrrolidine-2-carboxamide] | > 30 nM | 50 to 75% |
